According to patent US10590113B2, “6-hydroxy-4-oxo-1,4-dihydropyrimidine-5-carboxamides as APJ agonists” (priority 2016, dated 2020):

target: T1, human APJ receptor (Homo sapiens, UniProt P35414); assay: Intracellular cAMP Accumulation Assay (APJ hcAMP, HTRF); assay type: cell-based; details: not given
T1 construct: expressed in transfected cells; host or cells: HEK293
T1 sequence (P35414 1-380): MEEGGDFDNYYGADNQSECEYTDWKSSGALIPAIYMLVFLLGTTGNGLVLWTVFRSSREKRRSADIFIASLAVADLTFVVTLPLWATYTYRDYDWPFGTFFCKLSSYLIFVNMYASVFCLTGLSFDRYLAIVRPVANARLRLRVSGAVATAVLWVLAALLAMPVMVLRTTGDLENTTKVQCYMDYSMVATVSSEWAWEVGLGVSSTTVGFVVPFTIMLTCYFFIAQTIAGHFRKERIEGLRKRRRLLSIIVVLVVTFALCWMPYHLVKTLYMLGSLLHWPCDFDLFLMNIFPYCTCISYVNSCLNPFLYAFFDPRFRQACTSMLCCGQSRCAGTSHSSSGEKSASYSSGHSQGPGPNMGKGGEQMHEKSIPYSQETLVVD
Experimental: Intracellular cAMP Accumulation Assay
HEK293 cells stably expressing human APJ receptor were used to assess the activity of compounds. Cultured cells were detached and resuspended in the cAMP
Homogeneous Time-Resolved Fluorescence (HTRF) assay buffer (Cisbio cat; #62AM4PEJ). The assay was performed in 384-well assay plates (Perkin-Elmer; cat #6008289) according to assay protocol provided by the manufacturer. Serial dilutions of a compound together with assay buffer containing […] IBMX and 2 μM forskolin were added to each well containing 5,000 cells and incubated for 30 minutes at room temperature. Subsequently, cAMP D2 reagent was added in the lysis buffer followed by the EuK antibody (Cisbio; cat #62AM4PEJ) and incubated for 60 min. The fluorescence emission ratio was measured using fluorometer. The intracellular cAMP concentrations (compound-stimulated inhibition of forskolin-mediated cAMP production) were calculated by extrapolation from a standard curve using known cAMP concentrations. The EC50 values were obtained by fitting the data to a sigmoidal concentration-response curve with variable slope.
The EC50 value of each compound is presented at the end of the example description.
The biological activity of the exemplified compounds of this invention determined by the assay described above is shown at the end of each example.

Row | EC50 | Compound
1 | 0.01 to 10 nM | CCOCc1nc(=O)c(C(=O)N2CC[C@@H](c3ccccc3)C2)c(O)n1-c1c(OC)cccc1OC [Example 29, (S)-1-(2,6-dimethoxyphenyl)-2-(ethoxymethyl)-6-hydroxy-5-(3-phenylpyrrolidine-1-carbonyl)pyrimidin-4(1H)-one]
2 | 0.01 to 10 nM | CCOCc1nc(=O)c(C(=O)N2CC[C@H](c3ccccc3)C2)c(O)n1-c1c(OC)cccc1OC [Example 23, (R)-1-(2,6-dimethoxyphenyl)-2-(ethoxymethyl)-6-hydroxy-5-(3-phenylpyrrolidine-1-carbonyl)pyrimidin-4(1H)-one]

Row | Compound | EC50
3 | CCCCc1nc(=O)c(C(=O)N2CC[C@H](c3ccccc3)C2)c(O)n1-c1c(CC)cccc1CC [Example 90, 2-butyl-3-(2,6-diethylphenyl)-6-hydroxy-5-[(3R)-3-phenylpyrrolidine-1-carbonyl]-3,4-dihydropyrimidin-4-one] | 0.01 to 10 nM

same assay, conditions: HEK293 cells stably expressing human APJ receptor; inhibition of forskolin-mediated cAMP production; read-out: Human APJ cAMP EC50 potency range

Row | EC50 | Compound
4 | 0.01 to 10 nM | COc1cccc(OC)c1-n1c(CCC2CC2)nc(=O)c(C(=O)N2CC[C@@H](c3ccccc3)C2)c1O [Example 4, (S)-2-(2-Cyclopropylethyl)-1-(2,6-dimethoxyphenyl)-6-hydroxy-5-(3-phenylpyrrolidine-1-carbonyl)pyrimidin-4(1H)-one]
5 | 0.01 to 10 nM | C=CCCc1nc(O)c(C(=O)N2CC[C@H](c3ccccc3)C2)c(=O)n1-c1c(C)cccc1OC (single isomer, unassigned) [Example 8″]

same assay, conditions: human APJ, cAMP accumulation; potency range class; read-out: hAPJ cAMP EC50 Potency range

Row | EC50 | Compound
6 | 0.01 to 10 nM | COc1cccc(OC)c1-n1c(-c2cncc(C)c2)nc(=O)c(C(=O)N2CCC(c3ccccc3F)C2)c1O (single isomer, unassigned) [Example 233, 1-(2,6-dimethoxyphenyl)-5-[3-(2-fluorophenyl)pyrrolidine-1-carbonyl]-6-hydroxy-2-(5-methylpyridin-3-yl)-1,4-dihydropyrimidin-4-one]
7 | 0.01 to 10 nM | CCc1cccc(CC)c1-n1c(-c2csc(C)n2)nc(=O)c(C(=O)N2CCC(c3ncccc3F)C2)c1O (single isomer, unassigned) [Example 302, 1-(2,6-diethylphenyl)-5-[3-(3-fluoropyridin-2-yl)pyrrolidine-1-carbonyl]-6-hydroxy-2-(2-methyl-1,3-thiazol-4-yl)-1,4-dihydropyrimidin-4-one]
8 | 0.01 to 10 nM | CCc1cccc(CC)c1-n1c(-c2nc(C)cs2)nc(=O)c(C(=O)N2CCC(c3ncc(Cl)cc3F)C2)c1O (single isomer, unassigned) [Example 306, 5-[3-(5-chloro-3-fluoropyridin-2-yl)pyrrolidine-1-carbonyl]-1-(2,6-diethylphenyl)-6-hydroxy-2-(4-methyl-1,3-thiazol-2-yl)-1,4-dihydropyrimidin-4-one]
9 | 0.01 to 10 nM | CCc1cccc(CC)c1-n1c(-c2ccn(CC)n2)nc(=O)c(C(=O)N2CCC(c3ncc(F)cc3F)C2)c1O (single isomer, unassigned) [Example 309, 1-(2,6-diethylphenyl)-5-[3-(3,5-difluoropyridin-2-yl)pyrrolidine-1-carbonyl]-2-(1-ethyl-1H-pyrazol-3-yl)-6-hydroxy-1,4-dihydropyrimidin-4-one]
10 | 0.01 to 10 nM | CCc1cccc(CC)c1-n1c(-c2csc(C)n2)nc(=O)c(C(=O)N2CCC(c3ncc(F)cc3F)C2)c1O (single isomer, unassigned) [Example 298, 1-(2,6-diethylphenyl)-5-[3-(3,5-difluoropyridin-2-yl)pyrrolidine-1-carbonyl]-6-hydroxy-2-(2-methyl-1,3-thiazol-4-yl)-1,4-dihydropyrimidin-4-one]
11 | 0.01 to 10 nM | CCc1cccc(CC)c1-n1c(-c2csc(C)n2)nc(=O)c(C(=O)N2CC[C@@H](c3ccccc3)C2)c1O [Example 303, 1-(2,6-diethylphenyl)-6-hydroxy-2-(2-methyl-1,3-thiazol-4-yl)-5-[(3S)-3-phenylpyrrolidine-1-carbonyl]-1,4-dihydropyrimidin-4-one]
12 | 0.01 to 10 nM | CCc1cccc(CC)c1-n1c(-c2nc(C)cs2)nc(=O)c(C(=O)N2CCC(c3ncc(Cl)cc3F)C2)c1O (single isomer, unassigned) [Example 312, 5-[3-(5-chloro-3-fluoropyridin-2-yl)pyrrolidine-1-carbonyl]-1-(2,6-diethylphenyl)-6-hydroxy-2-(4-methyl-1,3-thiazol-2-yl)-1,4-dihydropyrimidin-4-one]

same assay, conditions: human APJ, intracellular cAMP accumulation; read-out: hAPJ cAMP EC50 Potency range

Row | EC50 | Compound
13 | 0.01 to 10 nM | COc1cccc(OC)c1-n1c(COC2CC2)nc(=O)c(C(=O)N2CCC(c3ccc(F)cc3)C2)c1O (single isomer, unassigned) [Example 100, 2-(cyclopropoxymethyl)-1-(2,6-dimethoxyphenyl)-5-[3-(4-fluorophenyl)pyrrolidine-1-carbonyl]-6-hydroxy-1,4-dihydropyrimidin-4-one]
14 | 0.01 to 10 nM | CCCCc1nc(=O)c(C(=O)N2CCC(Cc3ccccc3)C2)c(O)n1-c1c(OC)cccc1OC (racemic) [Example 73, 5-(3-benzylpyrrolidine-1-carbonyl)-2-butyl-1-(2,6-dimethoxyphenyl)-6-hydroxy-1,4-dihydropyrimidin-4-one]
15 | 0.01 to 10 nM | CCCCc1nc(=O)c(C(=O)N2CCC(c3ccc(F)cc3)C2)c(O)n1-c1c(OC)cccc1OC (single isomer, unassigned) [Example 77, 2-butyl-1-(2,6-dimethoxyphenyl)-5-[3-(4-fluorophenyl)pyrrolidine-1-carbonyl]-6-hydroxy-1,4-dihydropyrimidin-4-one]
16 | 0.01 to 10 nM | CCCCc1nc(=O)c(C(=O)N2CCC(c3ccccc3F)C2)c(O)n1[C@@H](CC)c1ccccc1 (stereo partly drawn) [Example 114, 2-butyl-5-[3-(2-fluorophenyl)pyrrolidine-1-carbonyl]-6-hydroxy-3-[(1S)-1-phenylpropyl]-3,4-dihydropyrimidin-4-one]
17 | 10 to 100 nM | CCCCc1nc(=O)c(C(=O)N2CC[C@@H](c3ccccc3)C2)c(O)n1[C@@H](C)c1ccc(F)cc1 [Example 143, 2-butyl-3-[(1S)-1-(4-fluorophenyl)ethyl]-6-hydroxy-5-[(3S)-3-phenylpyrrolidine-1-carbonyl]-3,4-dihydropyrimidin-4-one]
18 | 0.01 to 10 nM | CCOCc1nc(=O)c(C(=O)N2CCC(c3cccnc3)C2)c(O)n1-c1c(OC)cccc1OC (single isomer, unassigned) [Example 85, 1-(2,6-dimethoxyphenyl)-2-(ethoxymethyl)-6-hydroxy-5-[3-(pyridin-3-yl)pyrrolidine-1-carbonyl]-1,4-dihydropyrimidin-4-one]
19 | 0.01 to 10 nM | COc1ccccc1C1CCN(C(=O)c2c(O)n(-c3c(OC)cccc3OC)c(COC(C)C)nc2=O)C1 (single isomer, unassigned) [Example 160, 1-(2,6-dimethoxyphenyl)-6-hydroxy-5-[3-(2-methoxyphenyl)pyrrolidine-1-carbonyl]-2-[(propan-2-yloxy)methyl]-1,4-dihydropyrimidin-4-one]
20 | 10 to 100 nM | CCCCc1nc(=O)c(C(=O)N2CC[C@H](c3ccccc3)C2)c(O)n1[C@@H](C)c1ccccc1 [Example 141, 2-butyl-6-hydroxy-3-[(1S)-1-phenylethyl]-5-[(3R)-3-phenylpyrrolidine-1-carbonyl]-3,4-dihydropyrimidin-4-one]
21 | 10 to 100 nM | CCCCc1nc(=O)c(C(=O)N2CC[C@@H](c3ccccc3)C2)c(O)n1[C@H](COC)c1ccccc1 [Example 154, 2-butyl-6-hydroxy-3-[(1S)-2-methoxy-1-phenylethyl]-5-[(3S)-3-phenylpyrrolidine-1-carbonyl]-3,4-dihydropyrimidin-4-one]
22 | 0.01 to 10 nM | CC[C@@H](c1cc(F)cc(F)c1)n1c(-c2cnn(C)c2)nc(=O)c(C(=O)N2CCC(c3ncc(F)cc3F)C2)c1O (single isomer, unassigned) [Example 217]
23 | 0.01 to 10 nM | CCOCc1nc(=O)c(C(=O)N2CCC(c3cccnc3)C2)c(O)n1-c1c(OC)cccc1OC (single isomer, unassigned) [Example 82, 1-(2,6-dimethoxyphenyl)-2-(ethoxymethyl)-6-hydroxy-5-[3-(pyridin-3-yl)pyrrolidine-1-carbonyl]-1,4-dihydropyrimidin-4-one]
24 | 0.01 to 10 nM | COc1cccc(OC)c1-n1c(COC2CC2)nc(=O)c(C(=O)N2CCC(c3ccccc3Cl)C2)c1O (single isomer, unassigned) [Example 22, 5-(3-(2-chlorophenyl)pyrrolidine-1-carbonyl)-2-(cyclopropoxymethyl)-1-(2,6-dimethoxyphenyl)-6-hydroxypyrimidin-4(1H)-one]

same assay, conditions: read-out: hAPJ cAMP EC50 Potency range

Row | EC50 | Compound
25 | 0.01 to 10 nM | CCOCc1nc(=O)c(C(=O)N2CCC(c3ncc(F)cc3F)C2)c(O)n1-c1c(OC)cccc1OC (single isomer, unassigned) [Example 372, 5-(3-(3,5-difluoropyridin-2-yl)pyrrolidine-1-carbonyl)-1-(2,6-dimethoxyphenyl)-2-(ethoxymethyl)-6-hydroxypyrimidin-4(1H)-one]
